Target: T1, XylA (Aspergillus oryzae, UniProt Q2UR38)
T1 construct: gene xlnD; codon-optimized gene, N-terminal S. cerevisiae SED1 secretory signal peptide, expressed from X2 locus of S. cerevisiae CEN.PK XXX; secretome, intact cells and lysate assayed
T1 sequence (Q2UR38 21-798): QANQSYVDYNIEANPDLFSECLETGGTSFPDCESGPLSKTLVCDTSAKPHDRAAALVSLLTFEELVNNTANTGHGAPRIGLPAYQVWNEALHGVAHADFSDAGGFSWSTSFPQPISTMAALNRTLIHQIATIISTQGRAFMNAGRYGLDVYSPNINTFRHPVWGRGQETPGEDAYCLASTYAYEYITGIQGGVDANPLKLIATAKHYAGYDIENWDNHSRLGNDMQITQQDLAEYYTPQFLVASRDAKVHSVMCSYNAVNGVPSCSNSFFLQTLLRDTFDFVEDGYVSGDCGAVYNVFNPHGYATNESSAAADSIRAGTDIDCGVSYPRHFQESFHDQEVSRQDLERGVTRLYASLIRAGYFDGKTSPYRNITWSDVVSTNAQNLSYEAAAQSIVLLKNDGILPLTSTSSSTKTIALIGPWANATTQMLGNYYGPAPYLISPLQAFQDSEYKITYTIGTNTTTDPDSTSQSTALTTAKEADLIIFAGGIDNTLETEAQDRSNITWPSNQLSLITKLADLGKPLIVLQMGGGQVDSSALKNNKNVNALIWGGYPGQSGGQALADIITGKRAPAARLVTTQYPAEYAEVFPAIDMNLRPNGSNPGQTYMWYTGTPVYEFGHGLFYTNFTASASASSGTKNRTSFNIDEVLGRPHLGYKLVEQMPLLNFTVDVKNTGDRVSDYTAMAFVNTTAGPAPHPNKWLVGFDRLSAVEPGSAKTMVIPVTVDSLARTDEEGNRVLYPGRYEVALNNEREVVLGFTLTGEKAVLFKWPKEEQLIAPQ
Assay: p-nitrophenol release at […] nm, secretome / cell / intracellular fractions of XylA strain versus parent XXX strain
Type: cell-based
Conditions: 5 mM substrate, 20 mM sodium phosphate pH 7, 30 °C, 30 min

O=[N+]([O-])c1ccc(O[C@@H]2OC[C@@H](O)[C@H](O)[C@H]2O)cc1 [p-nitrophenyl-β-D-xylopyranoside]
p-nitrophenol release at 405 nm, secretome / cell / intracellular fractions of X: subcellular β-xylosidase activity quantified using p-nitrophenyl-β-D-xylopyranoside
